Experimental data reported in patent US5817667A, “Compounds and methods for the treatment of cancer” (University of Georgia Research Foudation, priority 1994, dated 1998).

Assays:
RL-60(TB) = assay: NCI cancer screening, growth inhibition (SRB); format: cell-based; settings: Leukemia, 48 hours exposure
K-562 = assay: NCI cancer screening, growth inhibition (SRB); format: cell-based; settings: Leukemia, 48 hours exposure
[1] = NCI cancer screening, growth inhibition (SRB); format: cell-based; settings: Leukemia; 48 hours exposure; read-out: Log10 GI50 (converted)
BSOLT-4 = assay: NCI cancer screening, growth inhibition (SRB); format: cell-based; settings: Leukemia; 48 hours exposure
SR = assay: NCI cancer screening, growth inhibition (SRB); format: cell-based; settings: Leukemia, 48 hours exposure
NCI-H23 = assay: NCI cancer screening, growth inhibition (SRB); format: cell-based; settings: Non-Small Cell Lung Cancer, 48 hours exposure
NCI-H460 = assay: NCI cancer screening, growth inhibition (SRB); format: cell-based; settings: Non-Small Cell Lung Cancer, 48 hours exposure
NCI-H522 = assay: NCI cancer screening, growth inhibition (SRB); format: cell-based; settings: Non-Small Cell Lung Cancer, 48 hours exposure
COLO205 = assay: NCI cancer screening, growth inhibition (SRB); format: cell-based; settings: Homo sapiens, COLO 205, 48 h, read-out: Log10 GI50 (converted)
HCT-116 = assay: NCI cancer screening, growth inhibition (SRB); format: cell-based; settings: Colon Cancer, 48 hours exposure
SP-268 = assay: NCI cancer screening, growth inhibition (SRB); format: cell-based; settings: 48 h, read-out: Log10 GI50 (converted)
SP-295 = assay: NCI cancer screening, growth inhibition (SRB); format: cell-based; settings: CNS Cancer, 48 hours exposure
U251 = assay: NCI cancer screening, growth inhibition (SRB); format: cell-based; settings: CNS Cancer, 48 hours exposure
MALME-3M = assay: NCI cancer screening, growth inhibition (SRB); format: cell-based; settings: Melanoma, 48 hours exposure
SK-MEL-5 = assay: NCI cancer screening, growth inhibition (SRB); format: cell-based; settings: Melanoma, 48 hours exposure
UACC-62 = assay: NCI cancer screening, growth inhibition (SRB); format: cell-based; settings: Melanoma, 48 hours exposure
OVCAR-4 = assay: NCI cancer screening, growth inhibition (SRB); format: cell-based
OVCAR-5 = assay: NCI cancer screening, growth inhibition (SRB); format: cell-based; settings: Ovarian Cancer, 48 hours exposure
CAKI-1 = assay: NCI cancer screening, growth inhibition (SRB); format: cell-based; settings: Renal Cancer, 48 hours exposure
TK-30 = assay: NCI cancer screening, growth inhibition (SRB); format: cell-based
DU-145 = assay: NCI cancer screening, growth inhibition (SRB); format: cell-based; settings: Prostate Cancer; 48 hours exposure
MCF7 = assay: NCI cancer screening, growth inhibition (SRB); format: cell-based; settings: Breast Cancer, 48 hours exposure
MDA-N = assay: NCI cancer screening, growth inhibition (SRB); format: cell-based; settings: Breast Cancer, 48 hours exposure
T-47D = assay: NCI cancer screening, growth inhibition (SRB); format: cell-based
Leukemia P388 cells = assay: In vivo treatment of leukemia P388 cells implanted ip in BDF1 mice
colon cell lines = assay: NCI cancer screening, relative sensitivity (FIG. 4); format: cell-based; settings: FIG. 4, certain colon cell lines
Description: (§1) Bars extending to the right represent sensitivity of the cell line to (-)-OddC in excess of the average sensitivity of all tested cell lines. […] Bars extending to the left correspondingly imply sensitivity less than the mean. These cell lines can be easily determined from Table 2, as the log10 concentration will be preceded by a ">".

[2] = tested on: each type of cancer cell tested; assay: as above; format: cell-based; settings: FIG. 4, on the basis of GI50; at least one cell line of each type
Description: as §1

leukemia cell lines = assay: as above; format: cell-based; settings: FIG. 4, certain leukemia cell lines
Description: as §1

[3] = tested on: prostate cancer cell lines; assay: as above; format: cell-based; settings: FIG. 4, certain prostate cancer cell lines
Description: as §1

[4] = Non-Small Cell Lung Cancer; 48 hours exposure
NCI-H322M [5] = settings: Non-Small Cell Lung Cancer; 48 hours exposure
cells = settings: 48 h, read-out: Log10 GI50 (converted)
NCI-H322M [6] = assay: cells; settings: Homo sapiens, 48 h, read-out: Log10 GI50 (converted)
K2112 = assay: cells; settings: 48 h, read-out: Log10 GI50 (converted)
[7] = read-out: Log10 GI50 (converted)
[8] = 25 mg/kg ip, twice a day, days 1 to 5

## Nc1ccn([C@@H]2CO[C@H](CO)O2)c(=O)n1 [(-)-OddC, (-)-(2S,4S)-1-(2-hydroxymethyl-1,3-dioxolan-4-yl)cytosine]
RL-60(TB)
  Log10 TGI: > -4.00
RL-60(TB); [7]
  GI50: 0.525 µM
K-562; Homo sapiens, K562, read-out: Log10 GI50 (converted)
  GI50: 25.7 µM
K-562
  Log10 TGI: > -4.00
[1]
  GI50: 0.219 µM
BSOLT-4
  Log10 TGI: -4.39
SR; Homo sapiens, SR, read-out: Log10 GI50 (converted)
  GI50: 1.12 µM
SR
  Log10 TGI: > -4.00
NCI-H23; Homo sapiens, NCI-H23, read-out: Log10 GI50 (converted)
  GI50: 12 µM
NCI-H23
  Log10 TGI: > -4.00
NCI-H460; Homo sapiens, NCI-H460, read-out: Log10 GI50 (converted)
  GI50: 47.9 µM
NCI-H460
  Log10 TGI: > -4.00
NCI-H522; Homo sapiens, NCI-H522, read-out: Log10 GI50 (converted)
  GI50: 0.871 µM
NCI-H522
  Log10 TGI: > -4.00
COLO205
  GI50: 93.3 µM
HCT-116
  Log10 TGI: > -4.00
HCT-116; Homo sapiens, HCT-116, read-out: Log10 GI50 (converted)
  GI50: 5.89 µM
SP-268
  GI50: 6.61 µM
SP-295
  Log10 TGI: > -4.00
SP-295; [7]
  GI50: 0.575 µM
U251
  Log10 TGI: > -4.00
U251; Homo sapiens, U-251, read-out: Log10 GI50 (converted)
  GI50: 12.3 µM
MALME-3M; Homo sapiens, Malme-3M, read-out: Log10 GI50 (converted)
  GI50: 30.9 µM
MALME-3M
  Log10 TGI: > -4.00
SK-MEL-5; Homo sapiens, SK-MEL-5, read-out: Log10 GI50 (converted)
  GI50: 12.3 µM
SK-MEL-5
  Log10 TGI: > -4.00
UACC-62; Homo sapiens, UACC-62, read-out: Log10 GI50 (converted)
  GI50: 2.95 µM
UACC-62
  Log10 TGI: > -4.00
OVCAR-4; Homo sapiens, OVCAR-4, 48 h, read-out: Log10 GI50 (converted)
  GI50: > 100 µM
OVCAR-4; Ovarian Cancer, 48 hours exposure
  Log10 TGI: > -4.00
OVCAR-5; Homo sapiens, OVCAR-5, read-out: Log10 GI50 (converted)
  GI50: 38.9 µM
OVCAR-5
  Log10 TGI: > -4.00
CAKI-1; Homo sapiens, CAKI-1, read-out: Log10 GI50 (converted)
  GI50: 0.224 µM
CAKI-1
  Log10 TGI: -4.87
TK-30; 48 h, read-out: Log10 GI50 (converted)
  GI50: > 100 µM
TK-30; Renal Cancer, 48 hours exposure
  Log10 TGI: > -4.00
DU-145
  Log10 TGI: > -4.00
MCF7
  Log10 TGI: > -4.00
MCF7; Homo sapiens, MCF7, read-out: Log10 GI50 (converted)
  GI50: 1.12 µM
MDA-N
  Log10 TGI: > -4.00
MDA-N; Homo sapiens, MDA-N, read-out: Log10 GI50 (converted)
  GI50: 46.8 µM
T-47D; Breast Cancer, 48 hours exposure
  Log10 TGI: > -4.00
T-47D; Homo sapiens, T47D, 48 h, read-out: Log10 GI50 (converted)
  GI50: > 100 µM
Leukemia P388 cells; [8]
  Cures/Total (survivors equal or greater than 45 day life span): 1/6
  ILS (Increased Life Span percent above control): 103%
Leukemia P388 cells; 25 mg/kg ip, twice a day, days 1 to 5 (control 13.3 days)
  Mean Survival Time: 27 days
Leukemia P388 cells; 25 mg/kg/dose ip, twice daily for five days
  life span increase of the remaining five mice: 103%
Leukemia P388 cells; of six mice treated with 25 mg/kg/dose
  long term survivors: one long term survivor
Colon cell lines
  sensitivity to (-)-OddC: extreme sensitivity
[2]
  sensitivity to (-)-OddC: exhibited sensitivity
Leukemia cell lines
  sensitivity to (-)-OddC: extreme sensitivity
[3]
  sensitivity to (-)-OddC: extreme sensitivity
[4]
  Log10 TGI: > -4.00
NCI-H322M [5]
  Log10 TGI: > -4.00
cells
  GI50: > 100 µM
NCI-H322M [6]
  GI50: > 100 µM
K2112
  GI50: > 100 µM
